The values that follow come from patent US20250120961A1, “P53 MODULATORS” (Nested Therapeutics, Inc., priority 2023, published 2025).

The target in this test is His-tagged p53-Y220C DNA binding domain (Homo sapiens, UniProt P04637, Y220C). The test is described as follows: Biochemical p53-Y220C and DNA binding assay (HTRF). The following applies: inflection point of 10 points dose titration, 4 parameter curve fit; p53-Y220C DBD 100 nM, biotinylated dsDNA 200 nM, 27 to 29° C.; read-out: HTRF IP. The text has this: Biological Example 1. Biochemical p53-Y220C and DNA Binding Assay
The compounds of this invention can bind to p53-Y220C and increase the ability of the mutant p53 to bind to DNA at higher temperatures. His-tagged p53-Y220C DNA binding domain containing amino acid 94-312 is used to measure DNA binding activities in vitro with the sequence described below. (SEQ ID NO: 1: […]. Biotin labeled double strand DNA (dsDNA) containing consensus p53 binding sequence (SEQ ID NO: 2: Forward: 5′-(biotin)-[…]-3′; Reverse: 5′-(biotin)-[…]-3′) is used to measure protein-DNA binding activities. Compounds, His-tagged p53-Y220C DBD proteins (100 nM), and biotinylated dsDNA (200 nM) were mixed in ice-cold assay buffer containing DPBS, 20 mM NaCl, and 0.5% BAS, and incubated at 4° C. overnight in 384-well plate. Plates were transferred to incubator at 27 to 29° C. with constant shaking for 60 minutes. Equal volume of Homogeneous Time-Resolved Fluorescence (HTRF) dyes containing mAb anti-6HIS Tb cryptate gold and d2 labeled streptavidin in the assay buffer was added to each well and incubated at 27 to 29° C. with constant shaking for 60 minutes. The plate was read using Envision multimode plate reader. Reference compound 1 was used as high control and DMSO was used as low control. The percentage activation (A %) of protein-DNA binding by compounds was normalized by setting up high control (reference compound) as […] and low control (DMSO) as 0% (A %=(HTRF ratio of compound-HTRF ratio of low control)/(HTRF ratio of high control-HTRF ratio of low control)*500). 10 points dose titration curves for each compound were analyzed by 4 parameter curve fit and inflection point (IP) was reported. Reference compound 1 is shown below Table 1. Compounds of the invention are active in the HTRF assay. Data in Table 1 collected using Biological Example 1.
For orientation: In TR-FRET formats the signal depends on donor and acceptor labels being close together.

Each structure is given as a SMILES string.

For `O=C(OCc1ccccc1)N1CCC(O)(CO/N=C/c2sc3c(N[C@@H]4CNC[C@@H]4F)cccc3c2CC(F)(F)F)CC1` [Example 1-25, benzyl 4-(((((E)-(7-(((3R,4S)-4-fluoropyrrolidin-3-yl)amino)-3-(2,2,2-trifluoroethyl)benzo[b]thiophen-2-yl)methylene)amino)oxy)methyl)-4-hydroxypiperidine-1-carboxylate], the EC50 was over 1000 nM. Consider `O=C(OCc1ccccc1)N1CCC(CO)(O/N=C/c2sc3c(N[C@@H]4CNC[C@@H]4F)cccc3c2CC(F)(F)F)CC1` [Example 1-26, benzyl 4-((((E)-(7-(((3R,4S)-4-fluoropyrrolidin-3-yl)amino)-3-(2,2,2-trifluoroethyl)benzo[b]thiophen-2-yl)methylene)amino)oxy)-4-(hydroxymethyl)piperidine-1-carboxylate], for which the EC50 is over 1000 nM. To `OC(CO/N=C/c1sc2c(N[C@@H]3CNC[C@@H]3F)cccc2c1CC(F)(F)F)Cn1cccn1` (stereo partly drawn) [Example 1-27, (E)-7-(((3R,4S)-4-fluoropyrrolidin-3-yl)amino)-3-(2,2,2-trifluoroethyl)benzo[b]thiophene-2-carbaldehyde O-(2-hydroxy-3-(1H-pyrazol-1-yl)propyl) oxime] belongs 100 to 1000 nM; to `OCC(Cn1cccn1)O/N=C/c1sc2c(N[C@@H]3CNC[C@@H]3F)cccc2c1CC(F)(F)F` (stereo partly drawn) [Example 1-28, (E)-7-(((3R,4S)-4-fluoropyrrolidin-3-yl)amino)-3-(2,2,2-trifluoroethyl)benzo[b]thiophene-2-carbaldehyde O-(1-hydroxy-3-(1H-pyrazol-1-yl)propan-2-yl) oxime], over 1000 nM.

In the case of `OC1(CO/N=C/c2sc3c(N[C@@H]4CNC[C@@H]4F)cccc3c2CC(F)(F)F)CCCCC1` [Example 1-29, (E)-7-(((3R,4S)-4-fluoropyrrolidin-3-yl)amino)-3-(2,2,2-trifluoroethyl)benzo[b]thiophene-2-carbaldehyde O-((1-hydroxycyclohexyl)methyl) oxime], the EC50 was over 1000 nM. For `OCC1(O/N=C/c2sc3c(N[C@@H]4CNC[C@@H]4F)cccc3c2CC(F)(F)F)CCCCC1` [Example 1-30, (E)-7-(((3R,4S)-4-fluoropyrrolidin-3-yl)amino)-3-(2,2,2-trifluoroethyl)benzo[b]thiophene-2-carbaldehyde O-(1-(hydroxymethyl)cyclohexyl) oxime] the value was over 1000 nM; for `OC1(CO/N=C\c2sc3c(N[C@@H]4CNC[C@@H]4F)cccc3c2CC(F)(F)F)CCCCC1` [Example 1-31, (Z)-7-(((3R,4S)-4-fluoropyrrolidin-3-yl)amino)-3-(2,2,2-trifluoroethyl)benzo[b]thiophene-2-carbaldehyde O-((1-hydroxycyclohexyl)methyl) oxime], over 1000 nM; for `OC1(CO/N=C/c2sc3c(N[C@@H]4CNC[C@@H]4F)cccc3c2CC(F)(F)F)CCCNC1` (stereo partly drawn) [Example 1-32, (E)-7-(((3R,4S)-4-fluoropyrrolidin-3-yl)amino)-3-(2,2,2-trifluoroethyl)benzo[b]thiophene-2-carbaldehyde O-((3-hydroxypiperidin-3-yl)methyl) oxime], over 1000 nM. To `OC1CNCCC1O/N=C/c1sc2c(N[C@@H]3CNC[C@@H]3F)cccc2c1CC(F)(F)F` (stereo partly drawn) [Example 1-33, (E)-7-(((3R,4S)-4-fluoropyrrolidin-3-yl)amino)-3-(2,2,2-trifluoroethyl)benzo[b]thiophene-2-carbaldehyde O-(3-hydroxypiperidin-4-yl) oxime] belongs over 1000 nM; to `OC(COCc1ccccc1)CO/N=C/c1sc2c(N[C@@H]3CNC[C@@H]3F)cccc2c1CC(F)(F)F` (stereo partly drawn) [Example 1-34, (E)-7-(((3R,4S)-4-fluoropyrrolidin-3-yl)amino)-3-(2,2,2-trifluoroethyl)benzo[b]thiophene-2-carbaldehyde O-(3-(benzyloxy)-2-hydroxypropyl) oxime], over 1000 nM.
